Data: patent US20020026053A1, “Novel 3-(substituted) -2- indolinones compounds and use thereof as inhibitors of protein kinase activity” (priority 1997, published 2002)
Values joined by “and” are separate entries in the source; they are usually repeats but may differ in a detail not shown here. Identical values can stand only once.

These molecules were tested against T1, Met receptor (EGFR/Met chimeric cells, EMR) (Homo sapiens, UniProt P08581) (assay: Met Autophosphorylation Assay). Settings: not given.
T1 construct: expressed in transfected cells; the other entry of the earlier key: EGFR (P00533, Epidermal growth factor receptor)
T1 sequence (P08581 with tags, fused parts or gaps): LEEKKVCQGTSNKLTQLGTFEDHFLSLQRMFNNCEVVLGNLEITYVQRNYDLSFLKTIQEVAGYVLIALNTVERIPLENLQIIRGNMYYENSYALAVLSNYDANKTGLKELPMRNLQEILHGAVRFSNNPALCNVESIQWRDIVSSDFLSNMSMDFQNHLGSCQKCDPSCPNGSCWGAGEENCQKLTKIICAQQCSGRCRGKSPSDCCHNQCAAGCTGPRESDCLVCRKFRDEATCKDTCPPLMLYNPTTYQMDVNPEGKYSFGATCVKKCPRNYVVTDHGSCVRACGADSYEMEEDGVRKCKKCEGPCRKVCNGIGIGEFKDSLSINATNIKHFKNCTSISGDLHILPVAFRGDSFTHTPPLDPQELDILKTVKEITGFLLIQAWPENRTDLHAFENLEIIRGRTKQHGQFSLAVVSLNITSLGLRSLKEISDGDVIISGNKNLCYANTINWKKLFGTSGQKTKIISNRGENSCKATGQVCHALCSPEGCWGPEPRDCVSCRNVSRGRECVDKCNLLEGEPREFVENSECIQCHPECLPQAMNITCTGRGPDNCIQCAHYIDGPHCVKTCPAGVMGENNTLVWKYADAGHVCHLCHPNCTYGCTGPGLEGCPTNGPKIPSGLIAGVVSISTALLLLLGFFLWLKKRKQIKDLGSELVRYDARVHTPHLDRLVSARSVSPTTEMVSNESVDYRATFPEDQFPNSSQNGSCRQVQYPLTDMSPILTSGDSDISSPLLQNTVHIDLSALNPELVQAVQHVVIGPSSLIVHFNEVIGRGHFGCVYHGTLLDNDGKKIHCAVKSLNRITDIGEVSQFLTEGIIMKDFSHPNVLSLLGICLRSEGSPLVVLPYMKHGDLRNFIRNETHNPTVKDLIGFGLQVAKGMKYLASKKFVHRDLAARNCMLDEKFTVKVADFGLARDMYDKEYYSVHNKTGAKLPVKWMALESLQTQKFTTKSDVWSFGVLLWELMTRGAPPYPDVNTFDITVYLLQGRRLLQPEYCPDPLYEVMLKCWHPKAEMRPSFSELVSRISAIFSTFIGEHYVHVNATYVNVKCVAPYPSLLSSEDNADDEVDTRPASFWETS
Assay type: biochemical
How it was run: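 Transiently transfected EGFR/Met chimeric (EMR) cells were lysed in HNTG with 1 mM PMSF. Met was captured on plates coated with goat anti-rabbit IgG, then rabbit anti-Met (C-28), using 90 μg lysate/100 μl for 60 min at room temperature. Phosphotyrosine was read by ELISA.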

Row | SMILES | Met Kinase % Inhibition (P.130) [%]
1 | Cc1c(Br)cc(Br)c2c1C(=Cc1cccc(Br)c1)C(=O)N2 [10723/H10] | 46.4
2 | Cc1cc(C=C2C(=O)Nc3c(Br)cc(Br)c(C)c32)[nH]n1 [10725/H05] | 20.8
3 | Cc1c(Br)cc(Br)c2c1C(=Cc1c(O)cc(O)cc1O)C(=O)N2 [10722/H03] | 100.5
4 | Cc1c(Br)cc(Br)c2c1C(=Cc1ncc[nH]1)C(=O)N2 [10720/H11] | 28.0
5 | Cc1c(Br)cc(Br)c2c1C(=Cc1ccc(N(C)C)c3ccccc13)C(=O)N2 [10724/H02] | 51.9
6 | Cc1c(Br)cc(Br)c2c1C(=Cc1cc(Br)c(O)c(C(C)(C)C)c1)C(=O)N2 [10721/H10] | 46.9
7 | COC(=O)Cc1c(Cl)[nH]c(C=C2C(=O)Nc3c(Br)cc(Br)c(C)c32)c1C(=O)OC [10725/H09] | 41.6
8 | Cc1c(Br)cc(Br)c2c1C(=Cc1cc(O)c(O)c(Br)c1)C(=O)N2 [10723/H04] | 95.6
9 | Cc1c(Br)cc(Br)c2c1C(=Cc1ccc(O)cc1O)C(=O)N2 [10723/H08] | 86.2
10 | Cc1c(Br)cc(Br)c2c1C(=Cc1nc3ccccc3n1C)C(=O)N2 [10721/H02] | 39.7
11 | Cc1c(Br)cc(Br)c2c1C(=Cc1sc3scc(C)c3c1C)C(=O)N2 [10724/H11] | 9.8
12 | Cc1c(Br)cc(Br)c2c1C(=Cc1ccccc1O)C(=O)N2 [10720/H05] | 51.0
13 | Cc1c(Br)cc(Br)c2c1C(=Cc1ccc(O)c(C(C)(C)C)c1)C(=O)N2 [10721/H09] | 36.7
14 | COc1ccc(C=C2C(=O)Nc3c(Br)cc(Br)c(C)c32)cc1OC [10720/H04] | 21.3
15 | Cc1cc(C=C2C(=O)Nc3c(Br)cc(Br)c(C)c32)sc1C [10721/H04] | 72.9
16 | Cc1c(Br)cc(Br)c2c1C(=Cc1ccc(F)cc1F)C(=O)N2 [10722/H06] | 70.3
17 | Cc1cc(C=C2C(=O)Nc3c(Br)cc(Br)c(C)c32)cc(C)c1O [10722/H07] | 51.0
18 | Cc1c(Br)cc(Br)c2c1C(=Cc1ccc(Cl)s1)C(=O)N2 [10721/H07] | 10.4
19 | Cc1c(Br)cc(Br)c2c1C(=Cc1cc(C(C)(C)C)cc(C(C)(C)C)c1O)C(=O)N2 [10723/H11] | 76.2
20 | Cc1c(Br)cc(Br)c2c1C(=Cc1ccc(O)c(O)c1O)C(=O)N2 [10723/H02] | 100.8
21 | CCOc1ccccc1C=C1C(=O)Nc2c(Br)cc(Br)c(C)c21 [10717/H02] | 44.5
22 | Cc1cccc(C=C2C(=O)Nc3ccc(CCCl)cc32)c1 [10736/G04] | −6.6
23 | COc1cc(O)c(C=C2C(=O)Nc3c(Br)cc(Br)c(C)c32)c(OC)c1 [10724/H08] | 65.8

Row | SMILES | Met Kinase % Inhibition (P.130) [%]
24 | Cc1c(Br)cc(Br)c2c1C(=Cc1csc([N+](=O)[O-])c1)C(=O)N2 [10722/H09] | 67.6
25 | CCOC(=O)c1[nH]c(C=C2C(=O)Nc3c(Br)cc(Br)c(C)c32)c(C(=O)OC)c1C [10726/H03] | 44.8
26 | Cc1c(Br)cc(Br)c2c1C(=Cc1cc3c4c(c1O)CCCN4CCC3)C(=O)N2 [10724/H05] | 68.6
27 | COc1ccc(Br)c(C=C2C(=O)Nc3c(Br)cc(Br)c(C)c32)c1O [10725/H03] | 58.3
28 | Cc1c(Br)cc(Br)c2c1C(=Cc1ccc(N3CCOCC3)cc1)C(=O)N2 [10725/H08] | 5.7
29 | Cc1c(Br)cc(Br)c2c1C(=Cc1cc3ccccc3o1)C(=O)N2 [10724/H07] | 8.6
30 | Cc1c(Br)cc(Br)c2c1C(=Cc1ccc(N3CCN(C=O)CC3)cc1)C(=O)N2 [10725/H07] | 14.2
31 | COc1ccc(O)c(C=C2C(=O)Nc3c(Br)cc(Br)c(C)c32)c1 [10720/H10] | 48.2
32 | COc1cccc(C=C2C(=O)Nc3c(Br)cc(Br)c(C)c32)c1O [10723/H03] | 69.2
33 | Cc1c(Br)cc(Br)c2c1C(=Cc1cc(C(C)C)c(O)c(C(C)C)c1)C(=O)N2 [10724/H06] | 32.8
34 | Cc1c(Br)cc(Br)c2c1C(=Cc1cc([N+](=O)[O-])c(O)c(C(C)(C)C)c1)C(=O)N2 [10722/H02] | 37.8
35 | Cc1c(Br)cc(Br)c2c1C(=Cc1ccc(O)c([N+](=O)[O-])c1)C(=O)N2 [10724/H03] | 26.1
36 | Cc1cc(O)cc(O)c1C=C1C(=O)Nc2c(Br)cc(Br)c(C)c21 [10720/H08] | 40.0
37 | CCCCN(CCCC)c1ccc(C=C2C(=O)Nc3c(Br)cc(Br)c(C)c32)cc1 [10722/H10] | 30.3
38 | COc1cccc(C=C2C(=O)Nc3ccc(S(=O)(=O)N4CCOCC4)cc32)c1 [10736/F10] | 65.3
39 | Cc1ccc(C=C2C(=O)Nc3c(Br)cc(Br)c(C)c32)o1 [10725/H04] | 47.1
40 | Cc1c(Br)cc(Br)c2c1C(=Cc1cc([N+](=O)[O-])cc(CCl)c1O)C(=O)N2 [10721/H06] | 90.3
41 | Cc1c(Br)cc(Br)c2c1C(=Cc1cc3c([nH]1)CCCC3)C(=O)N2 [10721/H05] | 33.6
42 | Cc1cc(C)c(C=C2C(=O)Nc3c(Br)cc(Br)c(C)c32)[nH]1 [10721/H08] | 42.5
43 | Cc1c(Br)cc(Br)c2c1C(=Cc1cc(C(C)(C)C)c(O)c(C(C)(C)C)c1)C(=O)N2 [10721/H11] | 46.0
44 | Cc1c(Br)cc(Br)c2c1C(=Cc1nn(C)cc1Cl)C(=O)N2 [10721/H03] | 21.3
45 | CCOc1cc(C=C2C(=O)Nc3c(Br)cc(Br)c(C)c32)ccc1O [10720/H09] | 49.0
46 | COc1cc(C)cc(O)c1C=C1C(=O)Nc2c(Br)cc(Br)c(C)c21 [10725/H06] | 33.0

Row | SMILES | Met Kinase % Inhibition (P.130) [%]
47 | Cc1c(Br)cc(Br)c2c1C(=Cc1cccn1C)C(=O)N2 [10717/H04] | 14.0
48 | Cc1c(Br)cc(Br)c2c1C(=Cc1ccc(C(F)(F)F)cc1)C(=O)N2 [10722/H11] | 66.1
49 | Cc1cc(C=C2C(=O)Nc3c(Br)cc(Br)c(C)c32)ccc1O [10723/H06] | 44.9
50 | Cc1c(Br)cc(Br)c2c1C(=Cc1ccccc1)C(=O)N2 [10720/H06] | 24.4
51 | Cc1c(Br)cc(Br)c2c1C(=Cc1sccc1Br)C(=O)N2 [10725/H02] | 15.8
52 | CCc1ccc(C=C2C(=O)Nc3c(Br)cc(Br)c(C)c32)o1 [10724/H10] | 72.2
53 | Cc1c(Br)cc(Br)c2c1C(=Cc1ccccc1[N+](=O)[O-])C(=O)N2 [10726/H02] | 66.6
54 | O=C1Nc2ccc(CCCl)cc2C1=Cc1ccccc1C(F)(F)F [10736/G03] | 0.6
55 | O=C1Nc2ccc(CCCl)cc2C1=Cc1ccc(Cl)cc1 [10736/G02] | 48.3
56 | Cc1c(Br)cc(Br)c2c1C(=Cc1cc(Cl)c(O)c(C(C)(C)C)c1)C(=O)N2 [10722/H08] | 72.6
57 | Cc1c(Br)cc(Br)c2c1C(=Cc1c[nH]cn1)C(=O)N2 [10725/H11] | 17.8
58 | Cc1c(Br)cc(Br)c2c1C(=Cc1ccc([N+](=O)[O-])s1)C(=O)N2 [10722/H04] | 62.2
59 | O=C1Nc2ccc(S(=O)(=O)N3CCOCC3)cc2C1=Cc1ccccc1Cl [10736/F11] | 25.2
60 | Cc1c(Br)cc(Br)c2c1C(=Cc1c(Br)cnn1-c1ccc(Cl)cc1)C(=O)N2 [10725/H10] | 21.8
61 | Cc1c(Br)cc(Br)c2c1C(=Cc1cccs1)C(=O)N2 [10717/H03] | 18.3
62 | COc1ccc(C=C2C(=O)Nc3c(Br)cc(Br)c(C)c32)c(O)c1 [10723/H09] | 62.1
63 | Cc1c(Br)cc(Br)c2c1C(=Cc1cccn1-c1ccc(Cl)cc1)C(=O)N2 [10724/H09] | 4.2
64 | CC(=O)Oc1ccc(C=C2C(=O)Nc3c(Br)cc(Br)c(C)c32)cc1OC(C)=O [10723/H05] | 64.2
65 | CSc1ccc(C=C2C(=O)Nc3c(Br)cc(Br)c(C)c32)s1 [10720/H07] | 10.8
66 | Cc1cc(C=C2C(=O)Nc3c(Br)cc(Br)c(C)c32)cc(C(C)(C)C)c1O [10726/H04] | 77.6
67 | Cc1c(Br)cc(Br)c2c1C(=Cc1ccccc1Br)C(=O)N2 [10723/H07] | 44.9
68 | Cc1c(Br)cc(Br)c2c1C(=Cc1ccc(C(=O)O)cc1)C(=O)N2 [10722/H05] | 83.2

Same assay, conditions: protocol P.130

Row | SMILES | Met Kinase % Inhibition (P.130)
69 | Cc1c(Br)cc(Br)c2c1C(=Cc1cccc(Cl)c1)C(=O)N2 [10736/H06] | 27.4%
70 | CCc1ccc(C=C2C(=O)Nc3ccc(CCCl)cc32)cc1 [10736/G09] | 16.2%
71 | Cc1c(Br)cc(Br)c2c1C(=Cc1ccc(Cl)cc1)C(=O)N2 [10736/H02] | 62.8%
72 | O=C1Nc2ccc(CCCl)cc2C1=Cc1ccccc1F [10736/G08] | 6.6%
73 | Cc1ccc(C=C2C(=O)Nc3c(Br)cc(Br)c(C)c32)cc1 [10736/H05] | 21.1%
74 | O=C1Nc2ccc(CCCl)cc2C1=Cc1cccc(F)c1 [10736/G07] | −0.2%
75 | Cc1ccc(C=C2C(=O)Nc3ccc(CCCl)cc32)cc1 [10736/G05] | 0.0% and 1.3%
76 | O=C1Nc2ccc(CCCl)cc2C1=Cc1ccccc1Cl [10736/G11] | 10.3%
77 | Cc1cccc(C=C2C(=O)Nc3c(Br)cc(Br)c(C)c32)c1 [10736/H04] | 27.2%
78 | COc1cccc(C=C2C(=O)Nc3ccc(CCCl)cc32)c1 [10736/G10] | 5.7%
79 | Cc1c(Br)cc(Br)c2c1C(=Cc1ccccc1C(F)(F)F)C(=O)N2 [10736/H03] | 27.7%
